The assay has as its target T1, mushroom tyrosinase.
T1 construct: gene PPO1
Description: L-dopa oxidation, absorbance at […] nm. The class given is biochemical. The note with it: L-dopa 2 mM stock, phosphate pH 6.8, 37 °C, 30 min; positive control.

≈ marks a conversion by molar mass, not a printed value.

`OC[C@H]1O[C@H](Oc2ccc(O)cc2)[C@H](O)[C@@H](O)[C@@H]1O` [α-arbutin]: the IC50 came to 270 µg/mL (≈ 992 µM).

A word on the IC50: it is the concentration at which inhibition is half-maximal.

These data come from article PMC11767586, “Cuphea hookeriana: Phytochemical Profile and the Cosmeceutical and Dermatological Properties of Its Active Fraction from the Whole Plant” (Molecules, 2025).
